Measurements taken from ChEMBL document CHEMBL4627252, “Synthesis and biological evaluation of bis-N2,N2'-(4-hydroxycoumarin-3-yl)ethylidene]-2,3-dihydroxysuccinodihydrazides” (Bioorg Med Chem Lett, 2020).
Converted amounts (≈) assume the structure as drawn.

How the values were obtained:
[1] = system: HeLa; assay: Cytotoxicity against human HeLa cells assessed as inhibition of cell viability incubated for 24 hrs by resazurin dye based fluorescence analysis
[2] = molecular target: Human immunodeficiency virus type 1 protease (Human immunodeficiency virus 1) (UniProt Q72874); assay: Inhibition of HIV-1 protease at 20 uM relative to control
[3] = system: Plasmodium falciparum; assay: Antimalarial activity against Plasmodium falciparum 3D7 infected in human erythrocytes assessed as parasite viability at 20 uM incubated for 48 hrs by parasite LDH release based colorimetric assay relative to control; assay type: functional
[4] = system: Trypanosoma brucei brucei; assay: Antitrypanosomal activity against Trypanosoma brucei brucei assessed as parasite viability at 20 uM relative to control; assay type: functional
[5] = Cytotoxicity against human HeLa cells assessed as cell viability at 20 uM incubated for 24 hrs by resazurin dye base fluorescence analysis relative to control; assay type: cell-based; settings: read-out: Activity
[6] = system: Mycobacterium tuberculosis; assay: Antimycobacterial activity against Mycobacterium tuberculosis H37Rv assessed as inhibition of bacterial growth by measuring visual MIC90 measured after 14 days by green fluorescent protein based microplate assay; assay type: functional; settings: 336 h
[7] = system: Mycobacterium tuberculosis; assay: Antimycobacterial activity against Mycobacterium tuberculosis H37Rv assessed as inhibition of bacterial growth by measuring calculated MIC90 measured after 14 days by green fluorescent protein based microplate assay; assay type: functional; settings: 336 h
[8] = system: Trypanosoma brucei brucei; assay: Antitrypanosomal activity against Trypanosoma brucei brucei assessed as inhibition of parasite viability; assay type: functional, organism-based
[9] = molecular target: Human immunodeficiency virus type 1 integrase (Human immunodeficiency virus 1, UniProt Q7ZJM1); assay: Inhibition of HIV-1 integrase
Human immunodeficiency virus type 1 integrase, sequence (Q7ZJM1 whole entry): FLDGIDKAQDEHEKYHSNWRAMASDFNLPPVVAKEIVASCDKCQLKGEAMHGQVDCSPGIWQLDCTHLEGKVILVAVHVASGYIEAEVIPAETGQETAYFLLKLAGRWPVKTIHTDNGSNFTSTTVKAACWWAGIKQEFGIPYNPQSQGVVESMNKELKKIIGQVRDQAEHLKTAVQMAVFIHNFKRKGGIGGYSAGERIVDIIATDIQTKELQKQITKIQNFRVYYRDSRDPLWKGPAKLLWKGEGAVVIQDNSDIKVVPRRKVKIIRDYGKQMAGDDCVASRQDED

| SMILES | IC50 [1] | inhibition [2] | Activity [3] | Activity [4] | viability at 24 h, 20 µM [5] | MIC90 [6] | MIC90 [7] | IC50 [8] | IC50 [9] |
| --- | --- | --- | --- | --- | --- | --- | --- | --- | --- |
| CC[C@H]1CN2CCc3cc(OC)c(OC)cc3[C@@H]2C[C@@H]1C[C@H]1NCCc2cc(OC)c(OC)cc21 [EMETINE] | 13 nM | – | – | – | – | – | – | – | – |
| C/C(=N\NC(=O)C(O)C(O)C(=O)N/N=C(\C)c1c(O)c2cc(Cl)ccc2oc1=O)c1c(O)c2cc(Cl)ccc2oc1=O (racemic) | – | 0% | 93.8% | 44.6% | 100% | 31.2 µM (≈ 19.4 µg/mL) | 54.2 µM (≈ 33.6 µg/mL) | – | – |
| CO[C@H]1/C=C/O[C@@]2(C)Oc3c(C)c(O)c4c(O)c(c(/C=N/N5CCN(C)CC5)c(O)c4c3C2=O)NC(=O)/C(C)=C\C=C\[C@H](C)[C@H](O)[C@@H](C)[C@@H](O)[C@@H](C)[C@H](OC(C)=O)[C@@H]1C [RIFAMPIN] | – | – | – | – | – | 0.019 µM (≈ 0.0156 µg/mL) | 0.007 µM (≈ 0.00576 µg/mL) | – | – |
| N=C(N)c1ccc(OCCCCCOc2ccc(C(=N)N)cc2)cc1 [PENTAMIDINE] | – | – | – | – | – | – | – | 39 nM | – |
| COc1ccc2oc(=O)c(/C(C)=N/NC(=O)C(O)C(O)C(=O)N/N=C(\C)c3c(O)c4cc(OC)ccc4oc3=O)c(O)c2c1 (racemic) | – | 0% | 100% | 100% | 84.6% | > 125 µM | > 125 µM | – | – |
| C/C(=N\NC(=O)C(O)C(O)C(=O)N/N=C(\C)c1c(O)c2ccccc2oc1=O)c1c(O)c2ccccc2oc1=O (racemic) | – | 0% | 90.7% | 42.7% | 78.4% | > 125 µM | > 125 µM | – | 3500 nM |
| C/C(=N\NC(=O)C(O)C(O)C(=O)N/N=C(\C)c1c(O)c2cc(Br)ccc2oc1=O)c1c(O)c2cc(Br)ccc2oc1=O (racemic) | – | 0% | 100% | 100% | 100% | 15.6 µM (≈ 11.1 µg/mL) | 18.9 µM (≈ 13.4 µg/mL) | – | – |
| C/C(=N\NC(=O)C(O)C(O)C(=O)N/N=C(\C)c1c(O)c2cc(C)ccc2oc1=O)c1c(O)c2cc(C)ccc2oc1=O (racemic) | – | 8.3% | 100% | 100% | 85.3% | > 125 µM | > 125 µM | – | – |
| C/C(=N\NC(=O)C(O)C(O)C(=O)N/N=C(\C)c1c(O)c2c(ccc3ccccc32)oc1=O)c1c(O)c2c(ccc3ccccc32)oc1=O (racemic) | – | 0% | 100% | 100% | 98.1% | 31.2 µM (≈ 20.3 µg/mL) | 29.5 µM (≈ 19.2 µg/mL) | – | – |
| C/C(=N\NC(=O)C(O)C(O)C(=O)N/N=C(\C)c1c(O)c2cc(F)ccc2oc1=O)c1c(O)c2cc(F)ccc2oc1=O (racemic) | – | 0% | 92.8% | 32.8% | 84.6% | > 125 µM | > 125 µM | – | – |
